Consider 13 molecules from patent US11008572B2, “Methods and compositions for modulating splicing” (SKYHAWK THERAPEUTICS, INC., priority 2017, dated 2021).

Structures are written as SMILES. Read-outs that look alike come from different tables or passages of the source.

Holding throughout (format): cell-based
Test [1] in a line: Splicing (IC50), Example 22. The settings on record: spliced gene and cells not stated. The procedure:
A-673 cell viability […], splicing (IC50) and brain AUC/Plasma AUC of SMSMs were determined. As shown in the tables below SMSMs had high CNS exposure.

Test [2] has as its system A-673 cells. Description: Cell viability, crystal violet staining. The note with it: Homo sapiens. The gist of the method:
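Readout is absorbance at 570 nm of crystal violet, taken up in 0.1 M sodium citrate in 50% ethanol after staining with 0.5% dye in 25% methanol. Plates held 5×10^3 cells per well, and compounds were added one day after seeding for 72 hours. Data are relative to vehicle, mean±SE.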

In test [3] the test system is FOXM1^A2 mRNA and FOXM1^BC mRNA. Description: Splicing assay (FOXM1), qPCR of isoform mRNAs. The gist of the method:
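Cells (20,000/well) treated at plating with compound, 8-point 4-fold series from 10 μM, 0.2% DMSO, 24 h at 37° C. Isoform mRNAs quantified by RT-qPCR against plasmid standards, normalized to PPIA and DMSO control; isoform ratio computed per concentration.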

Test [4] relates to IKBKAP^Δ20 mRNA. Nature of the test: IKBKAP splicing assay, qPCR. The settings on record: 24 hours of incubation. Here is the method:
(§1) Various cells lines were treated with the SMSMs described herein. RNA was then isolated, cDNA synthesized, qPCR performed and the levels of IKBKAP targets of the SMSMs were determined.
(§2) On the day of the experiment, a 96-well plate was seeded with the cell lines of interest. The cells were diluted with full growth media to a concentration of 2.0×10^5 cells/mL and 100 μL of cells were added to each well (20,000 cells per well). The cells were treated with a compound immediately after plating.
(§3) The compounds were then added to the cell plate using the HP compound dispenser. In the initial experiment, a top concentration of 10 μM and an 8 point 4-fold dilution scheme was used. The stock compounds were made at a concentration of 5 mM, and the DMSO concentration was set to 0.2%. DMSO was used to normalize all the compound-containing wells and the untreated cells.
(§4) The treated cells were incubated at 37° C. in a 5% CO2 incubator for the desired amount of time. Plates were placed in a plastic bag with a wet paper towel to prevent evaporation.
(§5) RNA was isolated using the Cells to CT kit (ThermoFisher, AM1728). The cells were washed once with 100 μL cold PBS. 50 μL of lysis buffer was added to each well/tube (49.5 μL lysis buffer+0.5 μL DNase I per well/tube). The lysis reaction was mixed and incubated at room temperature for 5 minutes. 5 μL of stop solution was added directly into each cell lysis reaction and mixed by pipetting up and down 5 times. The plates/tubes were incubated at room temperature for 2 minutes then placed on ice if the cDNA synthesis was to be performed immediately. Otherwise, the plates/tubes were stored at −80° C.
(§6) cDNA synthesis reactions were then performed. 40 μL RT master mix was added to PCR tubes or plate wells. 10 μL of RNA was added to each tube/well. The RT thermal cycler program was then run and tubes or plate wells were incubated at 37° C. for 1 hour, then at 95° C. for 5 minutes to deactivate the enzyme.
(§7) The qPCR was performed using a QuantStudio 6 instrument (ThermoFisher) and the following cycling conditions and according to the tables below. All samples and standards were analyzed in triplicate. Cycle 1: 2 minutes at 50° C. Cycle 2: 10 minutes at 95° C. Cycle 3 (repeat 40 times): 15 seconds at 95° C., 1 minute at 60° C.
(§8) The determined IKBKAP^FL and […] isoform quantities were then used to determine the IKBKAP^FL: IKBKAP^Δ20 ratio at increasing SMSM compound concentrations. The PPIA quantities were used in the normalization to account of cell proliferation effects of the compounds.
(§9) An assay to measure the IKBKAP^FL mRNA and IKBKAP^Δ20 mRNA simultaneously in cell wells was performed. The RNA values were measured relative to DMSO control and also included a housekeeping gene, PPIA to ensure data was consistent. The mRNA values were measured after 24 hours of incubation with the SMSM compounds.

Test [5] relates to IKBKAP^FL mRNA. Description: IKBKAP splicing assay, qPCR. The settings on record: 24 hours of incubation. Here is the method:
as §1, §2, §3, §4, §5, §6, §7, §8, §9
(In general: Quantitative PCR measures a nucleic acid by following its amplification.)

Setting [6] is: A673, cell viability, read-out: A-673 IC50 (nM) Cell viability.
[7] abbreviates: FoxM1 BC mRNA decrease (exon included), read-out: Splice IC50 (nM) FoxM1 BC mRNA decrease (exon included).
The mark [8] stands for this setting: read-out: Splice EC50 (nM) FoxM1 A mRNA increase (exon excluded).
Setting [9] is: A673, cell viability, read-out: A-673 IC50 (nM), Cell viability.
The mark [10] stands for this setting: 24 h, FoxM1 BC mRNA decrease (exon included), 0.1-1000 nM, 24 hours, read-out: Splice IC50 (nM), FoxM1 BC mRNA decrease (exon included).
Where [11] appears, read: FoxM1 A mRNA increase (exon excluded), 0.1-1000 nM, 24 hours, read-out: Splice EC50 (nM), FoxM1 A mRNA increase (exon excluded).

Usually EC50 stands for the concentration at which the effect is half-maximal.

On to `CN(c1ccc(-c2cc(F)c(-c3ccn(C)c(=O)c3)cc2O)nn1)[C@H]1C[C@]2(C)CC[C@](C)(C1)N2` [compound 169, 4-(4-(6-(((1R,3s,5S)-1,5-dimethyl-8-azabicyclo[3.2.1]octan-3-yl)(methyl)amino)pyridazin-3-yl)-2-fluoro-5-hydroxyphenyl)-1-methylpyridin-2(1H)-one], for which the IC50 is under 0.001 µM in test [1]; under 10 nM in test [2] (setting [6]); at most 5 nM in test [2] (A673, read-out: A-673 cell viability (IC50)); under 10 nM in test [3] (setting [7]). The concentration giving a half-maximal response (EC50) in test [3] (setting [8]) is over 1000 nM.

For `Cc1cn(-c2ccc(-c3ccc(N(C)[C@@H]4C[C@H]5CC[C@@H](C4)N5)nn3)c(O)c2)cn1` [compound 218, 2-(6-(((1R,3s,5S)-8-azabicyclo[3.2.1]octan-3-yl)(methyl)amino)pyridazin-3-yl)-5-(4-methyl-1H-imidazol-1-yl)phenol], the IC50 is over 1 µM in test [4], 10 to 100 nM in test [2] (setting [9]) and under 10 nM in test [3] (setting [10]). The EC50 in test [5] was 0.351 to 1 µM; in test [3] (setting [11]), under 10 nM.

For the molecule `CN(c1ccc(-c2ccc(-c3cnn(C)c(=O)c3)cc2O)nn1)[C@@H]1C[C@H]2CC[C@@H](C1)N2` [compound 238, 5-(4-(6-(((1R,3s,5S)-8-azabicyclo[3.2.1]octan-3-yl)(methyl)amino)pyridazin-3-yl)-3-hydroxyphenyl)-2-methylpyridazin-3(2H)-one], the IC50 in test [4] was in the range of 0.201 to 1 µM; in test [2] (setting [9]) it was 10 to 100 nM; in test [3] (setting [10]), 10 to 100 nM. In addition, the EC50 in test [5] is 0.101 to 0.35 µM; in test [3] (setting [11]) it was under 10 nM.

In the case of `CN(c1ccc(-c2ccc(-n3ccnc3)cc2O)nn1)[C@@H]1C[C@H]2CC[C@@H](C1)N2` [compound 217, 2-(6-(((1R,3s,5S)-8-azabicyclo[3.2.1]octan-3-yl)(methyl)amino)pyridazin-3-yl)-5-(1H-imidazol-1-yl)phenol], the IC50 in test [4] is 0.201 to 1 µM; in test [2] (setting [9]), 10 to 100 nM; in test [3] (setting [10]) it was 10 to 100 nM. Further, the concentration for a half-maximal effect (EC50) in test [5] was 0.351 to 1 µM; in test [3] (setting [11]), under 10 nM.

On to `Cc1nnnn1-c1ccc(-c2ccc(O[C@@H]3C[C@H]4CC[C@@H](C3)N4)nn2)c(O)c1` [compound 257, 2-(6-(((1R,3s,5S)-8-azabicyclo[3.2.1]octan-3-yl)oxy)pyridazin-3-yl)-5-(5-methyl-1H-tetrazol-1-yl)phenol], for which the IC50 in test [1] was 0.121 µM; in test [2] (setting [9]), over 1000 nM.

Turning to `Oc1cc(-n2nccn2)ccc1-c1ccc(O[C@@H]2C[C@H]3CC[C@@H](C2)N3)nn1` [compound 251, 2-(6-(((1R,3s,5S)-8-azabicyclo[3.2.1]octan-3-yl)oxy)pyridazin-3-yl)-5-(2H-1,2,3-triazol-2-yl)phenol], the IC50 in test [1] is 0.15 µM; in test [2] (setting [9]), 251 to 500 nM; in test [3] (setting [10]), 101 to 250 nM. In addition, the EC50 in test [3] (setting [11]) lay in the range of 10 to 100 nM.

Turning to `CN(c1ccc(-c2cc(F)c(-c3cn[nH]c3)cc2O)nn1)[C@@H]1C[C@H]2CC[C@@H](C1)N2` [compound 161, 2-(6-(((1R,3s,5S)-8-azabicyclo[3.2.1]octan-3-yl)(methyl)amino)pyridazin-3-yl)-4-fluoro-5-(1H-pyrazol-4-yl)phenol], the IC50 in test [4] was under 0.2 µM; in test [2] (setting [6]) it was under 10 nM; in test [3] (setting [7]), under 10 nM. Besides, the EC50 in test [5] was under 0.1 µM; in test [3] (setting [8]), under 10 nM.

In the case of `C[C@]12CC[C@](C)(C[C@@H](Oc3ccc(-c4ccc(-c5cn[nH]c5)cc4O)nn3)C1)N2` [compound 152, 2-(6-(((1R,3s,5S)-1,5-dimethyl-8-azabicyclo[3.2.1]octan-3-yl)oxy)pyridazin-3-yl)-5-(1H-pyrazol-4-yl)phenol], the figures for the IC50 in test [4], in test [2] (setting [6]) and in test [3] (setting [7]) were over 1 µM, 101 to 250 nM and 10 to 100 nM, respectively. Further, the concentration for a half-maximal effect (EC50) in test [5] fell in the range of 0.351 to 1 µM; in test [3] (setting [8]), 10 to 100 nM.

In the case of `Oc1cc(-n2ccnc2)ccc1-c1ccc(O[C@@H]2C[C@H]3CC[C@@H](C2)N3)nn1` [compound 245, 2-(6-(((1R,3s,5S)-8-azabicyclo[3.2.1]octan-3-yl)oxy)pyridazin-3-yl)-5-(1H-imidazol-1-yl)phenol], the IC50 in test [1] is 0.03 µM; in test [2] (setting [9]), 501 to 1000 nM; in test [3] (setting [10]), 101 to 250 nM. Also, the 50% effective concentration (EC50) in test [3] (setting [11]) was in the range of 10 to 100 nM.

Take `CN(c1ccc(-c2ccc(-c3ccn(C)c(=O)c3)cc2O)nn1)[C@@H]1C[C@H]2CC[C@@H](C1)N2` [compound 240, 4-(4-(6-(((1R,3s,5S)-8-azabicyclo[3.2.1]octan-3-yl)(methyl)amino)pyridazin-3-yl)-3-hydroxyphenyl)-1-methylpyridin-2(1H)-one]: the IC50 in test [4] is 0.201 to 1 µM; in test [2] (setting [9]), 10 to 100 nM; in test [3] (setting [10]) it was under 10 nM. The EC50 in test [5] was 0.101 to 0.35 µM; in test [3] (setting [11]), under 10 nM.

As for `Cc1ncc(-c2ccc(-c3ccc(N(C)[C@@H]4C[C@H]5CC[C@@H](C4)N5)nn3)c(O)c2)o1` [compound 228, 2-(6-(((1R,3s,5S)-8-azabicyclo[3.2.1]octan-3-yl)(methyl)amino)pyridazin-3-yl)-5-(2-methyloxazol-5-yl)phenol], the results for the IC50 in test [4], in test [2] (setting [9]) and in test [3] (setting [10]) were over 1 µM, 10 to 100 nM and 10 to 100 nM, respectively. Besides, the half-maximal effective concentration (EC50) in test [5] was 0.351 to 1 µM; in test [3] (setting [11]) it was under 10 nM.

Take `CN(c1ccc(-c2ccc(-n3nccn3)cc2O)nn1)[C@@H]1C[C@H]2CC[C@@H](C1)N2` [compound 223, 2-(6-(((1R,3s,5S)-8-azabicyclo[3.2.1]octan-3-yl)(methyl)amino)pyridazin-3-yl)-5-(2H-1,2,3-triazol-2-yl)phenol]: the IC50 is over 1 µM in test [4]; 10 to 100 nM in test [2] (setting [9]); under 10 nM in test [3] (setting [10]); 11 to 100 nM in test [3] (Homo sapiens, A-375, 24 h, A-375 cells, 24 hours, table does not say EC50 or IC50, read-out: FOXM1); 200 to 500 nM in test [3] (Homo sapiens, BXPC-3, 24 h, BxPC-3 cells, 24 hours, table does not say EC50 or IC50, read-out: FOXM1); 200 to 500 nM in test [3] (Homo sapiens, DU-145, 24 h, DU-145 cells, 24 hours, table does not say EC50 or IC50, read-out: FOXM1). For the same molecule, the IC50 in test [3] (Homo sapiens, Daoy, 24 h, Daoy cells, 24 hours, table does not say EC50 or IC50, read-out: FOXM1) fell in the range of 101 to 200 nM; in test [3] (Homo sapiens, G-401, 24 h, G-401 cells, 24 hours, table does not say EC50 or IC50, read-out: FOXM1), 11 to 100 nM; in test [3] (Homo sapiens, SH-SY5Y, 24 h, SH-SY5Y cells, 24 hours, table does not say EC50 or IC50, read-out: FOXM1), 11 to 100 nM; in test [3] (Homo sapiens, TT, 24 h, T.T cells, 24 hours, table does not say EC50 or IC50, read-out: FOXM1), 101 to 200 nM. Also, the EC50 was 0.101 to 0.35 µM in test [5] and under 10 nM in test [3] (setting [11]).

On to `Cc1nnn(-c2ccc(-c3ccc(O[C@@H]4C[C@H]5CC[C@@H](C4)N5)nn3)c(O)c2)n1` [compound 258, 2-(6-(((1R,3s,5S)-8-azabicyclo[3.2.1]octan-3-yl)oxy)pyridazin-3-yl)-5-(5-methyl-2H-tetrazol-2-yl)phenol], for which the figures for the IC50 in test [1], in test [2] (setting [9]) and in test [3] (setting [10]) were 0.149 µM, 251 to 500 nM and 101 to 250 nM, respectively. The EC50 in test [3] (setting [11]) was 10 to 100 nM.
